Source: US6929810B2, “Preparation of essential oil compositions for portable liquid disinfection” (Council of Scientific and Industrial Research, priority 2001, dated 2005)

system: E. coli; assay: bore-well method (zone of inhibition); type: cell-based; conditions: standard antibiotics available in the market

| Compound | Zone of Inhibition, Antibiotic [mm] |
| --- | --- |
| CN(C)[C@@H]1C(O)=C(C(N)=O)C(=O)[C@@]2(O)C(O)=C3C(=O)c4c(O)cccc4[C@@](C)(O)[C@H]3C[C@@H]12 [Tetracycline] | 24 |
| O=C(N[C@H](CO)[C@H](O)c1ccc([N+](=O)[O-])cc1)C(Cl)Cl [Chloromphenilcol] | 35 |
| Gentamycin | 24 |
| CC1(C)S[C@@H]2[C@H](NC(=O)[C@H](N)c3ccccc3)C(=O)N2[C@H]1C(=O)O [Ampicillin] | 14 |
| NC[C@H]1O[C@H](O[C@H]2[C@H](O)[C@@H](O[C@H]3O[C@H](CO)[C@@H](O)[C@H](N)[C@H]3O)[C@H](N)C[C@@H]2N)[C@H](O)[C@@H](O)[C@@H]1O [Kanamycin] | 30 |
| CC[C@H]1OC(=O)[C@H](C)[C@@H](O[C@H]2C[C@@](C)(OC)[C@@H](O)[C@H](C)O2)[C@H](C)[C@@H](O[C@@H]2O[C@H](C)C[C@H](N(C)C)[C@H]2O)[C@](C)(O)C[C@@H](C)C(=O)[C@H](C)[C@@H](O)[C@]1(C)O [Erythromycin] | 10 |
